{
  "source": "paper PMC10681007",
  "about": "“Targeted Degradation of XIAP is Sufficient and Specific to Induce Apoptosis in MYCN-overexpressing High-risk Neuroblastoma” (Cancer Research Communications, 2023)",
  "format_in_all_cases": "cell-based, Human",
  "key": {"BE(2)-C and KELLY cells": {"tested_on": "BE(2)-C and KELLY cells", "assay": "Apoptosis (cleaved PARP/caspase-3, Caspase-Glo 3/7)", "conditions": "10 µmol/L", "protocol": "The determination of caspase-3/7 levels as an indication for apoptosis activity was performed using a Caspase-Glo 3/7 assay kit from Promega according to manufacturer's instructions. Cells were seeded at 1 × 10^4 cells per well and treated with 10 µmol/L of IAP antagonists for various indicated timings, followed by bioluminescence measurement using luminescent plate reader, Tecan Infinite200 Pro. The activity of apoptosis was also measured by flow cytometry using the Dead Cell Apoptosis Kit with Annexin V FITC and PI (Thermo Fisher Scientific) according to manufacturer's instructions. Cells harvested from lentiviral infection were subjected to Annexin V (2.5 µL) and PI (40 ng/mL, 0.5 µL) staining, followed by flow cytometric analysis using BD LSRFortessa cell analyzer with excitation/emission spectra of 494 nm/518 nm for FITC and 535 nm/617 nm for PI.\nFIGURE 2 Specific loss of XIAP expression, not c-IAP1, is required for mediating apoptosis in high-risk neuroblastoma cells. A, Summary of IAP antagonists’ efficacy in killing neuroblastoma cells. […] C, Graphical representation showing the fold change of caspase-3/7 activity relative to vehicle controls after treatment with 10 µmol/L of either A4, B3, or BV6 at indicated timings (data were expressed as mean ± SD of three independent experiments conducted in duplicates; *, P < 0.05). […]"}, "NB1": {"tested_on": "NB1", "assay": "RealTime-Glo MT cell viability assay", "protocol": "(§1) Cell viability was measured in real time using RealTime-Glo MT Cell Viability Assay as according to manufacturer's instructions from Promega. Cells were seeded at 1 × 10^4 cells per well and treated with a range of doses of indicated antagonists, followed by continuous bioluminescence reading every 24 hours for 3 days using luminescent plate reader, Varioskan (SkanIT software). IC50 was determined using GraphPad Prism software.\n(§2) To determine their efficacy in neuroblastoma, a panel of neuroblastoma cell lines including neuroblastoma patient-derived cell lines and noncancerous normal tissue-derived cell lines were treated with increasing doses of each antagonist (0–100 µmol/L), followed by real-time measurement of cell viability every 24 for 72 hours."}, "[1]": {"tested_on": "NBL01-1116 patient-derived neuroblastoma cells", "assay": "RealTime-Glo MT cell viability assay", "protocol": "as §1, §2"}, "IMR-32": {"tested_on": "IMR-32", "assay": "RealTime-Glo MT cell viability assay", "protocol": "as §1, §2"}, "KELLY": {"tested_on": "KELLY", "assay": "RealTime-Glo MT cell viability assay", "protocol": "as §1, §2"}, "BE(2)-C": {"tested_on": "BE(2)-C", "assay": "RealTime-Glo MT cell viability assay", "protocol": "as §1, §2"}, "[2]": {"tested_on": "NBL16-0118 patient-derived neuroblastoma cells", "assay": "RealTime-Glo MT cell viability assay", "protocol": "as §1, §2"}, "NLF": {"tested_on": "NLF", "assay": "RealTime-Glo MT cell viability assay", "protocol": "as §1, §2"}, "XIAP and c-IAP1": {"tested_on": "XIAP and c-IAP1", "assay": "Immunoblot analysis of XIAP and c-IAP1 expression", "conditions": "10 µmol/L", "from_the_text": "FIGURE 2 Specific loss of XIAP expression, not c-IAP1, is required for mediating apoptosis in high-risk neuroblastoma cells. A, Summary of IAP antagonists’ efficacy in killing neuroblastoma cells. The IAP antagonists were ranked on the basis of the average potency of killing (IC50) and specificity of killing toward only neuroblastoma cells: (i) A4, (ii) B3, (iii) BV6, (iv) LCL161, (v) CUDC-427, (vi) Debio 1143. B, Immunoblot analysis of c-IAP1, XIAP, PARP, and cleaved caspase-3 expression in neuroblastoma cell lines, BE(2)-C and KELLY, and noncancerous normal tissue cell line, HS5, after treatment with 10 µmol/L of either A4, B3, or BV6 at indicated timings (three independent replicates). C, Graphical representation showing the fold change of caspase-3/7 activity relative to vehicle controls after treatment with 10 µmol/L of either A4, B3, or BV6 at indicated timings (data were expressed as mean ± SD of three independent experiments conducted in duplicates; *, P < 0.05). D, Morphology of cells 48 hours posttreatment with 10 µmol/L of either A4, B3, or BV6. […]\nWhole cell lysates harvested were lysed in EBC buffer (pH 8.0 of 50 mM Tris, 0.5% NP-40, 120 mM sodium chloride) containing protease inhibitors and protein concentration were quantified using the Bradford assay (Thermo Fisher Scientific). […]"}, "THLE3 (liver origin)": {"tested_on": "THLE3 (liver origin)", "assay": "RealTime-Glo MT cell viability assay, noncancerous normal cells", "protocol": "as §1, §2\n(§3) To evaluate this, noncancerous normal tissue-derived cell lines THLE3 and HS5 were utilized to evaluate toxicity and tolerability."}, "HS5 (bone marrow origin)": {"tested_on": "HS5 (bone marrow origin)", "assay": "RealTime-Glo MT cell viability assay, noncancerous normal cells", "protocol": "as §1, §2, §3"}, "[3]": {"tested_on": "neuroblastoma cells across the panel of cell lines", "assay": "Cell viability, IC50 range across the panel", "conditions": "range over cell lines, doses 0–100 µmol/L, viability every 24 for 72 hours; read-out: IC50 against neuroblastoma cells across the panel of cell lines", "protocol": "as §1, with “([…]” for “(SkanIT”, “software. To determine their efficacy in neuroblastoma, a panel of neuroblastoma cell lines including neuroblastoma patient-derived cell lines and noncancerous normal tissue-derived cell lines were treated with increasing doses of each antagonist (0-100 μmol/L), followed by real-time measurement of cell viability every 24 for 72 hours. […] Supplementary Table S2; Fig. 2A). […] Fig. 2A).” for “software.”"}},
  "note": "Starred links: 1 amine or outer side, 2 acyl side, 3 side chain; linkers in the order of their positions; H or OH if unused. Positions of bridges follow the written chain, without caps; N, C: chain ends. Non-standard residues stand in square brackets, D forms with d. Residues, ends and D or L forms follow the SMILES beside them. Chains are numbered I, II in the order given. Hexamethylenediamine = C(CCCN[*:2])CCN[*:1]; Dip = N[C@H](C(=O)O)C(c1ccccc1)c1ccccc1; Chg = N[C@H](C(=O)O)C1CCCCC1; NMeA = CN[C@@H](C)C(=O)O",
  "data": [
    {"smiles": "CN[C@@H](C)C(=O)N[C@H](C(=O)N1CCC[C@H]1C(=O)N[C@H](C(=O)NCCCCCCNC(=O)[C@@H](NC(=O)[C@@H]1CCCN1C(=O)[C@@H](NC(=O)[C@H](C)NC)C1CCCCC1)C(c1ccccc1)c1ccccc1)C(c1ccccc1)c1ccccc1)C1CCCCC1", "note": "[BV6] (I: H-[NMeA][Chg]P[Dip] / II: H-[NMeA][Chg]P[Dip]; linker I:C-II:C via Hexamethylenediamine)", "values": [
      {"measurement": "apoptosis (PARP and caspase-3 cleavage, caspase-3/7 activity)", "setting": "BE(2)-C and KELLY cells", "result": "minimal or no apoptosis"},
      {"measurement": "IC50", "setting": "NB1; NB1, 24 hours", "result": 7, "unit": "µM"},
      {"measurement": "IC50", "setting": "NB1; NB1, 48 hours", "result": 5.5, "unit": "µM"},
      {"measurement": "IC50", "setting": "NB1; NB1, 72 hours", "result": 3.8, "unit": "µM"},
      {"measurement": "IC50", "setting": "[1]; NBL01-1116, 24 hours", "result": 14.5, "unit": "µM"},
      {"measurement": "IC50", "setting": "[1]; NBL01-1116, 48 hours", "result": 9.3, "unit": "µM"},
      {"measurement": "IC50", "setting": "[1]; NBL01-1116, 72 hours", "result": 8.5, "unit": "µM"},
      {"measurement": "IC50", "setting": "IMR-32; IMR-32, 24 hours", "result": 7.4, "unit": "µM"},
      {"measurement": "IC50", "setting": "IMR-32; IMR-32, 48 hours", "result": 5.8, "unit": "µM"},
      {"measurement": "IC50", "setting": "IMR-32; IMR-32, 72 hours", "result": 4.3, "unit": "µM"},
      {"measurement": "IC50", "setting": "KELLY; 24 hours", "result": 13.5, "unit": "µM"},
      {"measurement": "IC50", "setting": "KELLY; 48 hours", "result": 12.9, "unit": "µM"},
      {"measurement": "IC50", "setting": "KELLY; 72 hours", "result": 10.1, "unit": "µM"},
      {"measurement": "IC50", "setting": "BE(2)-C; 24 hours", "result": 21.2, "unit": "µM"},
      {"measurement": "IC50", "setting": "BE(2)-C; 48 hours", "result": 16.8, "unit": "µM"},
      {"measurement": "IC50", "setting": "BE(2)-C; 72 hours", "result": 16.5, "unit": "µM"},
      {"measurement": "IC50", "setting": "[2]; NBL16-0118, 24 hours", "result": 5.1, "unit": "µM"},
      {"measurement": "IC50", "setting": "[2]; NBL16-0118, 48 hours", "result": 2.8, "unit": "µM"},
      {"measurement": "IC50", "setting": "[2]; NBL16-0118, 72 hours", "result": 2.3, "unit": "µM"},
      {"measurement": "IC50", "setting": "NLF; 24 hours", "result": 7.4, "unit": "µM"},
      {"measurement": "IC50", "setting": "NLF; 48 hours", "result": 3.8, "unit": "µM"},
      {"measurement": "IC50", "setting": "NLF; 72 hours", "result": 3.7, "unit": "µM"},
      {"measurement": "XIAP and c-IAP1 expression (immunoblot)", "setting": "XIAP and c-IAP1; BE(2)-C and KELLY cells", "result": "loss of c-IAP1 expression with no change in XIAP expression"},
      {"measurement": "XIAP and c-IAP1 expression (immunoblot)", "setting": "XIAP and c-IAP1; HS5 cells", "result": "loss of c-IAP1 expression with no changes in XIAP expression"},
      {"measurement": "IC50", "setting": "THLE3 (liver origin); THLE3, 24 hours", "result": 11.3, "unit": "µM"},
      {"measurement": "IC50", "setting": "THLE3 (liver origin); THLE3, 48 hours", "result": 6.8, "unit": "µM"},
      {"measurement": "IC50", "setting": "THLE3 (liver origin); THLE3, 72 hours", "result": 5.2, "unit": "µM"},
      {"measurement": "IC50", "setting": "HS5 (bone marrow origin); HS5, 24 hours", "result": 6.1, "unit": "µM"},
      {"measurement": "IC50", "setting": "HS5 (bone marrow origin); HS5, 48 hours", "result": 4.4, "unit": "µM"},
      {"measurement": "IC50", "setting": "HS5 (bone marrow origin); HS5, 72 hours", "result": 3.6, "unit": "µM"},
      {"measurement": "IC50", "setting": "[3]", "result": "3 to 20", "unit": "µM"}
    ]}
  ]
}
